Values quoted from earlier work, collected in patent US9259405B2, “Method of treating functional somatic syndromes with combination of famciclovir and diclofenac” (INNOVATIVE MED CONCEPTS, LLC, priority 2012, dated 2016).

System: fibromyalgia patients
Settings: J. Rheumatology (2004) 31, 783-784

## CC(C)[C@H](N)C(=O)OCCOCn1cnc2c(=O)[nH]c(N)nc21 [valacyclovir]
  treatment of fibromyalgia patients: not successful
